“And” between values parts separate entries of the source, which are not always exact repeats. Equal entries are not always repeated. Where two headings read alike, the source gives them in different places.
Columns and labels:
Assay type in all cases: cell-based
[1] = target: T1, hBGT1 (Homo sapiens, UniProt P48065); details: for IC50: 30 nM [3H]GABA, 3 min, CHO Flp-In cells stably expressing hBGT1; for decrease of hBGT1 inhibitory potency compared to ATPCA: [3H]GABA uptake; for decrease of hBGT1 inhibitory potency compared to ATPCA / subtype-selectivity for hBGT1 over the other hGATs: CHO Flp-In cells; for subtype-selectivity for hBGT1 over the other hGATs: estimated from [3H]GABA uptake IC50 values
T1 construct: expressed in transfected cells
T1 sequence (P48065 1-614): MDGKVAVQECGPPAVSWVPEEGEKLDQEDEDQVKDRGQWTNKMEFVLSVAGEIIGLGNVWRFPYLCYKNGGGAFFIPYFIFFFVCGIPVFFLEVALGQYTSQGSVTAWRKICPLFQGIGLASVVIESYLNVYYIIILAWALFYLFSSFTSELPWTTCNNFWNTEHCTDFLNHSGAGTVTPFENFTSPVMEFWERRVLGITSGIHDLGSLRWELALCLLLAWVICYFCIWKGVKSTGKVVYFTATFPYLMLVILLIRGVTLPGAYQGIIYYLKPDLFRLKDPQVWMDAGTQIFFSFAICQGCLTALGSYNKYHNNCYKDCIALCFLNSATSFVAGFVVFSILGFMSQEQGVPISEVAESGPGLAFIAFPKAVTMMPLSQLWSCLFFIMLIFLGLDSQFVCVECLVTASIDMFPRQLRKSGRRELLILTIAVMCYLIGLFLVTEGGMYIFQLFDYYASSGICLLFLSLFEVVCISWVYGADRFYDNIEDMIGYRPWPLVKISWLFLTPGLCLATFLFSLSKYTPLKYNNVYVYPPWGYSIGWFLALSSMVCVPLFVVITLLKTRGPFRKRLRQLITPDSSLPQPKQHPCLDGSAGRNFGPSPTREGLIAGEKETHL
Method: (§1) CHO Flp-In and tsA201 cells were cultured at 37 °C in a humidified atmosphere of […] and 5% CO2. As previously described[38],[63], CHO Flp-In cells stably expressing the hGATs were cultured in Ham’s F12 Nutrient Mix supplemented with 10% FBS, 1% P/S and plasmocin (5 µg/mL) under the selection pressure of hygromycin B (200 µg/mL). DMEM with GlutaMAX-I supplemented with 10% FBS and 1% P/S was used as growth medium for the tsA201 cells, which were transfected with DNA constructs using PolyFect according to the manufacturer’s specifications (Qiagen, West Sussex, UK), but with half of the recommended reagent volumes.
(§2) Uptake assays were performed in PDL-coated white 96-well polystyrene cell culture microplates (PerkinElmer, Boston, MA, USA) as previously described[38],[63]. […] Assay buffer was HBSS supplemented with 20 mM HEPES, 1 mM CaCl2 and 1 mM MgCl2, pH 7.4. […] After termination, scintillation liquid (MicroScint-20, PerkinElmer) was added and the radioactivity measured in a TopCount NXT Microplate Scintillation Counter (PerkinElmer).
(§3) Data analysis and statistical evaluation were performed in GraphPad Prism 7.02 (GraphPad Software, San Diego, CA, USA). Concentration-uptake inhibition curves, generated from the radioligand-based uptake assays, were fitted by non-linear regression, using the equation for sigmoidal concentration–response with variable slope: Y = Bottom + (Top–Bottom)/(1 + 10^((logIC50 − X) × HillSlope)), where Y is the response, X is the logarithm of the concentration, Top and Bottom are the plateaus in same units as Y, logIC50 is the concentration giving a response halfway between Bottom and Top, and the HillSlope is the steepness of the curve. For the substrate concentration–response curves generated from the FMP assay, the same equation was used but with logEC50 instead for logIC50. Unless otherwise stated, data are presented as means ± S.E.M. of at least three independent pooled experiments performed in triplicates.

[2] = target: T2, hGAT1 (Homo sapiens, UniProt P30531); test: [3H]GABA uptake inhibition at hGAT1 stably expressed in CHO Flp-In cells; details: 30 nM [3H]GABA, 3 min, CHO Flp-In cells stably expressing hGAT1; read-out: IC50 hGAT1
T2 construct: expressed in transfected cells
T2 sequence (P30531 whole entry): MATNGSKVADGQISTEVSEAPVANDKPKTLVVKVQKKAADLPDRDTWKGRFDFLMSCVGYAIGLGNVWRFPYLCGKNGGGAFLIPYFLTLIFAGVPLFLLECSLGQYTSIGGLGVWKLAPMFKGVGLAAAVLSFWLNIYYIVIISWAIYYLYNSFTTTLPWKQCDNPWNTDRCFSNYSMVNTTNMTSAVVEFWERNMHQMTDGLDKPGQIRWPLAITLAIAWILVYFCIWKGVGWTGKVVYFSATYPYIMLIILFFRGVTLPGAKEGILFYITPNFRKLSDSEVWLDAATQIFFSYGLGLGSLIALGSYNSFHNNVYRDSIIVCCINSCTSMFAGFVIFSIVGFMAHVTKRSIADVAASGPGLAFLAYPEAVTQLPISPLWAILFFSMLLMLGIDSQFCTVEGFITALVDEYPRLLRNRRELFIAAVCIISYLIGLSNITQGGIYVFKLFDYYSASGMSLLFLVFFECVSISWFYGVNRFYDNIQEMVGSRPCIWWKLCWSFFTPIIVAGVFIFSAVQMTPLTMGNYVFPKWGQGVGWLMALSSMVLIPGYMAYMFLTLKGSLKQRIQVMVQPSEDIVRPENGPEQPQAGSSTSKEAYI
Method: as §1, §2, §3

[3] = target: T3, hGAT2 (Homo sapiens, UniProt Q9NSD5); test: [3H]GABA uptake inhibition at hGAT2 stably expressed in CHO Flp-In cells; details: 30 nM [3H]GABA, 3 min, CHO Flp-In cells stably expressing hGAT2; read-out: IC50 hGAT2
T3 construct: expressed in transfected cells
T3 sequence (Q9NSD5 1-602): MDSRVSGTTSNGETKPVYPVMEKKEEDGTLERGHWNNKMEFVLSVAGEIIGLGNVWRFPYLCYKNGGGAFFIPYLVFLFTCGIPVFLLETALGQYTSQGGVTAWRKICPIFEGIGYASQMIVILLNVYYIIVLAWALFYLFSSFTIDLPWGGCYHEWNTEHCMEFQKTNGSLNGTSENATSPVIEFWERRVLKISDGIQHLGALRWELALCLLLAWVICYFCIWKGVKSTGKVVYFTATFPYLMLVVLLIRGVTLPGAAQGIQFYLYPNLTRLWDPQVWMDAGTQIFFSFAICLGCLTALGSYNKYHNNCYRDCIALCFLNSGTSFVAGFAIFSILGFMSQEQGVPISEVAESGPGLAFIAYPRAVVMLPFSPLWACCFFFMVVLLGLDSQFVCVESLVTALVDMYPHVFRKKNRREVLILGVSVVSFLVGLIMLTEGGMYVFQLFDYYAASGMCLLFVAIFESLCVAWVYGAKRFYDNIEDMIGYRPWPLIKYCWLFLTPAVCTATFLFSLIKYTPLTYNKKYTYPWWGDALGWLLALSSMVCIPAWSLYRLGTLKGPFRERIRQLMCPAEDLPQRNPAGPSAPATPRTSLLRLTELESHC
Method: as §1, §2, §3

[4] = target: T4, hBGT1 wt (Homo sapiens, UniProt P48065); test: [3H]GABA uptake inhibition at wt hBGT1 transiently expressed in tsA201 cells; details: 30 nM [3H]GABA, tsA201 cells transiently expressing wt hBGT1
T4 construct: expressed in transfected cells; host or cells: tsA201 cells, transient (PolyFect), pcDNA5/FRT vector
T4 sequence (P48065 1-614): T1 sequence (P48065 1-614)

[5] = target: T1, hBGT1; test: FLIPR Membrane Potential (FMP) assay at hBGT1 stably expressed in CHO Flp-In cells; details: for substrate character at hBGT1 in FMP assay: concentration-dependent increase in fluorescence signal; for Mean Rmax as % of GABA Rmax ± S.E.M. / EC50: hBGT1 stably expressed in CHO Flp-In cells; for Mean Rmax as % of GABA Rmax ± S.E.M.: FMP assay; for EC50: three independent experiments
Method: The fluorescence-based FMP assay was performed as previously described, for the functional characterization of the electrogenic transport of substrates via hBGT1. Briefly, CHO Flp-In cells stably expressing hBGT1 or hGAT1 were plated (~ 50,000 cells/well) into black PDL-coated 96-well plates with clear bottom (VWR, Radnor, PA, USA). The next day, the growth medium was removed, and cells were washed once with HBSS assay buffer and FMP Blue Dye (Molecular Devices, Crawley, UK), added, and incubated. Ligands were added via the NOVOStar plate reader (BMG Labtech GmbH, Offenburg, Germany), preheated to 37 °C, approximately 10 min before reading of the cell plate. The fluorescence signals were measured for 33.8 s upon ligand addition using an emission and excitation wavelength of […], respectively. Electrogenic transport of substrates via hBGT1 will lead to an influx of the negatively charged FMP Blue dye that will bind to intracellular proteins and lipids resulting in an increase in the fluorescence signal.
as §3

[6] = read-out: pIC50 ± S.E.M. hBGT1 (converted)
[7] = read-out: pIC50 ± S.E.M. BGT1 wt (converted)

Row | Structure (SMILES) | IC50 ([1]; read-out: IC50 hBGT1) | IC50 [1, 6] | decrease of hBGT1 inhibitory potency compared to ATPCA [1] | IC50 [2] | IC50 [3] | IC50 ([4]; read-out: IC50 BGT1 wt) | IC50 [4, 7] | substrate character at hBGT1 in FMP assay [5] | Mean Rmax as % of GABA Rmax ± S.E.M. [5] | subtype-selectivity for hBGT1 over the other hGATs [1] | EC50 [5]
1 | NC1=NCC(C(=O)O)CC1 (stereo not drawn) [compound 2, 6-amino-2,3,4,5-tetrahydropyridine-3-carboxylic acid, reference compound] | < 100 µM | 12.9 µM | fivefold | 216 µM | > 1000 µM | 52 µM | 51.3 µM | substrates for hBGT1 | 103 ± 3.9 % of GABA Rmax and 76 ± 2.7 % of GABA Rmax | – | –
2 | NC1=NC=C(C(=O)O)CN1.O=C(O)C(F)(F)F [compound 11] | 48 µM | 46.8 µM | 19 fold | > 1000 µM | > 1000 µM | 220 µM | – | substrates for hBGT1 | 95 ± 4.0 % of GABA Rmax | ≥ 21 times | 75 µM
3 | Cl.NC1=NCC(C(=O)O)CN1Cc1ccccc1 (stereo not drawn) [compound 4] | 163 µM | – | 20–65 fold | > 1000 µM | 105 µM | 354 µM | 324 µM | – | – | – | –
4 | CCN1CC(C(=O)O)CN=C1N.Cl (stereo not drawn) [compound 3] | 86 µM | – | 20–65 fold and 34 fold | > 1000 µM | > 1000 µM | 406 µM | 398 µM | substrates for hBGT1 | – | at least 12 times | –
5 | NC1=NCC(C(=O)O)CN1 (stereo not drawn) [ATPCA, 2-amino-1,4,5,6-tetrahydropyrimidine-5-carboxylic acid, reference compound] | – | – | – | > 1000 µM | – | 11 µM | 10.5 µM | – | – | – | –
6 | C[C@@H]1N=C(N)NC[C@@H]1C(=O)O (single isomer, unassigned) [l-15a] | < 100 µM | 33.9 µM | – | > 1000 µM | > 1000 µM | – | 20.9 µM | substrates for hBGT1 | 36 ± 2.9 % of GABA Rmax | ≥ 29 times | 40 µM
